The text below walks through data of ChEMBL document CHEMBL3046389, “Synthesis and biological evaluation of novel hydroquinone dimethyl ethers as potential anticancer and antimicrobial agents” (2013).

≈ marks a conversion by molar mass, not a printed value.

Common to all, as to format: functional
Assay [1] deals with Pseudomonas aeruginosa. In words: Ratio of ampicillin MIC to compound MIC for Pseudomonas aeruginosa ATCC 10145 after 48 hr by two-fold serial broth dilution method. On the technique in general: Broth dilution looks for growth in wells or tubes with falling amounts of substance.
A further assay relates to Candida albicans. In words: Antimicrobial activity against Candida albicans DSM 70014 after 48 hr by two-fold serial broth dilution method. The conditions noted are these: DSM 70014, 48 h.
Assay [2] deals with Pseudomonas aeruginosa. In words: Antimicrobial activity against Pseudomonas aeruginosa ATCC 10145 after 48 hr by two-fold serial broth dilution method. The conditions noted are these: ATCC 10145, 48 h.
Another assay concerns Staphylococcus aureus. In words: Antimicrobial activity against Staphylococcus aureus DSM 1104 after 48 hr by two-fold serial broth dilution method. To be noted: DSM 1104, 48 h.
Another assay has as its system Escherichia coli. In words: Antimicrobial activity against Escherichia coli ATCC 11775 after 48 hr by two-fold serial broth dilution method. The conditions noted are these: ATCC 11775, 48 h.
Another assay concerns Bacillus subtilis. In words: Antimicrobial activity against Bacillus subtilis ATCC 6633 after 48 hr by two-fold serial broth dilution method. To be noted: ATCC 6633, 48 h.

For `COc1ccc(OC)c(/C=C/c2nnc(SCC(=O)c3cc(O)ccc3O)n2-c2ccc(Cl)cc2)c1`, the Ratio with Pseudomonas aeruginosa [1] was found to be 4. For the same compound, the MFC (commonly the lowest tested concentration that kills the fungus rather than only halting it) in the assay with Candida albicans is 50 µg/mL (≈ 95.4 µM). In addition, the MIC (usually the least concentration at which growth counts as inhibited) in the assay on Candida albicans came to 25 µg/mL (≈ 47.7 µM); against Pseudomonas aeruginosa [2], 12.5 µg/mL (≈ 23.9 µM); in the assay with Staphylococcus aureus, 50 µg/mL (≈ 95.4 µM); in the assay on Escherichia coli it was 25 µg/mL (≈ 47.7 µM); in the assay with Bacillus subtilis it was 12.5 µg/mL (≈ 23.9 µM). Further, the MBC – broadly, the smallest concentration meeting the test's criterion for killing – against Pseudomonas aeruginosa [2] stood at 25 µg/mL (≈ 47.7 µM); against Staphylococcus aureus, 50 µg/mL (≈ 95.4 µM); against Escherichia coli, 50 µg/mL (≈ 95.4 µM); in the assay with Bacillus subtilis it was 25 µg/mL (≈ 47.7 µM).
For the compound `CC1(C)S[C@@H]2[C@H](NC(=O)[C@H](N)c3ccccc3)C(=O)N2[C@H]1C(=O)O.O.O.O` [AMPICILLIN TRIHYDRATE], the minimum inhibitory concentration (MIC) against Pseudomonas aeruginosa [2] came to 50 µg/mL; with Staphylococcus aureus, 5 µg/mL; against Escherichia coli, 10 µg/mL; against Bacillus subtilis, 12.5 µg/mL.
Turning to `COc1ccc(OC)c(/C=C/C2=NN(C(C)=O)C(c3ccccc3)O2)c1` (configuration not stated), the MFC in the assay with Candida albicans was 50 µg/mL (≈ 142 µM). The minimal inhibitory concentration (MIC) with Candida albicans came out at 50 µg/mL (≈ 142 µM); against Pseudomonas aeruginosa [2], 100 µg/mL (≈ 284 µM); in the assay with Staphylococcus aureus it was 25 µg/mL (≈ 70.9 µM); against Escherichia coli it was 100 µg/mL (≈ 284 µM); with Bacillus subtilis, 50 µg/mL (≈ 142 µM). The minimal bactericidal concentration (MBC) in the assay on Pseudomonas aeruginosa [2] came out at 100 µg/mL (≈ 284 µM); in the assay with Staphylococcus aureus, 50 µg/mL (≈ 142 µM); against Escherichia coli, 100 µg/mL (≈ 284 µM); against Bacillus subtilis, 50 µg/mL (≈ 142 µM).
For `COc1ccc(OC)c(/C=C/c2nnc(SCC(=O)c3cc(O)ccc3O)n2-c2ccccc2)c1`, the Ratio with Pseudomonas aeruginosa [1] came to 4. Moreover, in the assay with Candida albicans, the MFC came to 50 µg/mL (≈ 102 µM). The minimum inhibitory concentration (MIC) was determined as 50 µg/mL (≈ 102 µM) against Candida albicans; 12.5 µg/mL (≈ 25.5 µM) against Pseudomonas aeruginosa [2]; 25 µg/mL (≈ 51.1 µM) in the assay on Staphylococcus aureus; 12.5 µg/mL (≈ 25.5 µM) against Escherichia coli; 25 µg/mL (≈ 51.1 µM) against Bacillus subtilis. In addition, the MBC was 25 µg/mL (≈ 51.1 µM) against Pseudomonas aeruginosa [2], 50 µg/mL (≈ 102 µM) in the assay on Staphylococcus aureus, 25 µg/mL (≈ 51.1 µM) against Escherichia coli and 50 µg/mL (≈ 102 µM) with Bacillus subtilis.
As for `COc1ccc(OC)c(/C=C/c2nnc(Nc3ccccc3)s2)c1`, the MFC against Candida albicans was found to be 50 µg/mL (≈ 147 µM). Further, the MIC in the assay with Candida albicans worked out at 50 µg/mL (≈ 147 µM); in the assay on Pseudomonas aeruginosa [2] it was 100 µg/mL (≈ 295 µM); in the assay with Staphylococcus aureus it was 50 µg/mL (≈ 147 µM); in the assay with Escherichia coli, 50 µg/mL (≈ 147 µM); in the assay on Bacillus subtilis, 100 µg/mL (≈ 295 µM). Besides, the MBC with Pseudomonas aeruginosa [2] turned out to be 100 µg/mL (≈ 295 µM); with Staphylococcus aureus, 50 µg/mL (≈ 147 µM); in the assay on Escherichia coli it was 50 µg/mL (≈ 147 µM); against Bacillus subtilis, 100 µg/mL (≈ 295 µM).
The compound `CCSc1nnc(/C=C/c2cc(OC)ccc2OC)n1-c1ccccc1` gave an MFC with Candida albicans of 50 µg/mL (≈ 136 µM). For the same compound, the MIC with Candida albicans came to 50 µg/mL (≈ 136 µM); with Pseudomonas aeruginosa [2] it was 100 µg/mL (≈ 272 µM); against Staphylococcus aureus, 100 µg/mL (≈ 272 µM); in the assay with Escherichia coli, 100 µg/mL (≈ 272 µM); with Bacillus subtilis it was 100 µg/mL (≈ 272 µM). Also, the MBC in the assay with Pseudomonas aeruginosa [2], against Staphylococcus aureus, with Escherichia coli and against Bacillus subtilis was 100 µg/mL (≈ 272 µM) in each case.
In turn, `COc1ccc(OC)c(/C=C/C2=NN(C(C)=O)C(c3ccc(Cl)cc3)O2)c1` (configuration not stated) gave an MFC in the assay with Candida albicans of 100 µg/mL (≈ 259 µM). For the same compound, the MIC against Candida albicans was 50 µg/mL (≈ 129 µM); against Pseudomonas aeruginosa [2], 25 µg/mL (≈ 64.6 µM); with Staphylococcus aureus, 100 µg/mL (≈ 259 µM); in the assay with Escherichia coli, 25 µg/mL (≈ 64.6 µM); in the assay with Bacillus subtilis, 50 µg/mL (≈ 129 µM). Further, the MBC in the assay on Pseudomonas aeruginosa [2] worked out at 50 µg/mL (≈ 129 µM); against Staphylococcus aureus, 100 µg/mL (≈ 259 µM); with Escherichia coli it was 50 µg/mL (≈ 129 µM); with Bacillus subtilis it was 50 µg/mL (≈ 129 µM).
In the case of `Clc1ccccc1C(c1ccccc1)(c1ccccc1)n1ccnc1` [CLOTRIMAZOLE], the minimal inhibitory concentration (MIC) in the assay on Candida albicans came to 5 µg/mL (≈ 14.5 µM).
Turning to `COc1ccc(OC)c(/C=C/C(=O)N/N=C/c2ccc([N+](=O)[O-])cc2)c1`, in the assay on Candida albicans, the MFC is 50 µg/mL (≈ 141 µM). The minimal inhibitory concentration (MIC) with Candida albicans stood at 50 µg/mL (≈ 141 µM); against Pseudomonas aeruginosa [2] it was 50 µg/mL (≈ 141 µM); against Staphylococcus aureus it was 100 µg/mL (≈ 281 µM); in the assay with Escherichia coli it was 50 µg/mL (≈ 141 µM); against Bacillus subtilis, 50 µg/mL (≈ 141 µM). The MBC is 50 µg/mL (≈ 141 µM) in the assay with Pseudomonas aeruginosa [2], 100 µg/mL (≈ 281 µM) against Staphylococcus aureus, 50 µg/mL (≈ 141 µM) with Escherichia coli and 50 µg/mL (≈ 141 µM) with Bacillus subtilis.
